One assay relates to HeLa S-3 cells. Kind of assay: Inhibition of cell growth, HeLa cells (SRB). Type of assay: cell-based, human. To be noted: for IC50: Table 2, growth inhibition, 2 days, replicate experiments, read-out: CI50 HeLa Cells. The method, then:
Growth inhibition (GI50) values were measured with HeLa S-3 cells selected for growth on plastic. […] One day later, a control plate was fixed by addition of TCA to 5%. After five rinses with tap water the plate was air dried and stored at 4° C. Test compounds were added to the remaining plates at 10-fold dilutions between 0.01 and 100 μM. Two days later all plates were fixed as described above. Cells were then stained by the addition of 100μl per well of 0.4% sulforhodamine B (SRB) in 1% acetic acid for 30 min at 4° C. Wells were then quickly rinsed 5×with acetic acid (1%) and allowed to air dry. The SRB was then solubilized by the addition of 100 μl per well of unbuffered 10 mM Tris base. Dye was quantified by measuring absorbance at 490 nm on a Molecular Devices kinetic microplate reader. Growth at each inhibitor concentration relative to the untreated control was calculated according to the following equation: percent growth=100×(T−To)/(C−To), where T was the average optical density (OD) of the test wells after 2 days of treatment, To was the average OD of the wells in the control plate on day 0 and C was the average OD of untreated wells. Plots of percent growth versus inhibitor concentration were used to determine the GI50.

The target in another assay is T1, CyclinB/cdk1 (Homo sapiens, UniProt P06493).
T1 construct: Monoclonal antibody against cyclinB (GNS1) is added to the supernatant; endogenous in cells
T1 sequence (P06493 whole entry): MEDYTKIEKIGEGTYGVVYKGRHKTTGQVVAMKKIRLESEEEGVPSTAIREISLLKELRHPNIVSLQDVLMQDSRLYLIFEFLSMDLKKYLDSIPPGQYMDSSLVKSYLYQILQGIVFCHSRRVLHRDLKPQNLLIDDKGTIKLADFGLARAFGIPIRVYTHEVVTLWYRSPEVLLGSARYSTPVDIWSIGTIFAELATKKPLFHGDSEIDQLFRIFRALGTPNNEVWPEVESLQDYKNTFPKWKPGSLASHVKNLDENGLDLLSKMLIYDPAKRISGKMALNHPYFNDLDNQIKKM
T1 sequence (P14635 whole entry partner): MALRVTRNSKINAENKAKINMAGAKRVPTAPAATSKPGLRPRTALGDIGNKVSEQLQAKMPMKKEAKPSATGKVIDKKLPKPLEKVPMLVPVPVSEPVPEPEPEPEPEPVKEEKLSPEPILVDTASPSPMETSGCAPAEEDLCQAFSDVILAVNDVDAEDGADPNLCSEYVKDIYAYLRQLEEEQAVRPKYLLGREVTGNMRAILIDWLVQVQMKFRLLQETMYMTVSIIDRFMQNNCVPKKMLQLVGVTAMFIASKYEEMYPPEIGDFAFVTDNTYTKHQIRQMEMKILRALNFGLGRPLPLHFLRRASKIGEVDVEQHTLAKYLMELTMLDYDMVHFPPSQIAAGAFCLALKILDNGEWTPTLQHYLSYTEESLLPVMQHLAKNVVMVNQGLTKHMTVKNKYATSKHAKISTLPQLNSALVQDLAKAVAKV
Kind of assay: CyclinB/cdk1 protein kinase assay (histone H1 phosphorylation, immunopurified complex from HeLa). Type of assay: biochemical. The note with it: Table 2; replicate experiments.

Assay [1] relates to Tumor Cells in Hollow Fibers. Put plainly: NCI Hollow Fiber Assay. It counts as in vivo.
For the next assay, the system named is MALME-3M. Put plainly: NCI growth inhibition, MALME-3M. It counts as cell-based, human. To be noted: Homo sapiens; MALME-3M (Melanoma).
In the next assay the test system is SK-MEL-5. Kind of assay: NCI growth inhibition, SK-MEL-5. It counts as cell-based, human. The note with it: Homo sapiens; SK-MEL-5 (Melanoma).
Another assay deals with NCI-H460. Put plainly: NCI growth inhibition, NCI-H460. Type of assay: cell-based, human. To be noted: Homo sapiens; NCI-H460 (Non-Small Cell Lung).
For a further assay, the system named is SK-OV-3. Kind of assay: NCI growth inhibition, SK-OV-3. It counts as cell-based, human. To be noted: Homo sapiens; SK-OV-3 (Ovarian).
A further assay has as its system CAKI-1. Kind of assay: NCI growth inhibition, CAKI-1. It counts as cell-based, human. The note with it: Homo sapiens; CAKI-1 (Renal).
In a further assay the target is CyclinA/cdk2 (Homo sapiens, UniProt P24941). Kind of assay: CyclinA/cdk2 protein kinase assay (histone H1 phosphorylation, immunopurified complex from HeLa). The note with it: read-out: IC50 CyclinA cdk2; Table 2; replicate experiments.
A further assay has as its target CyclinE/cdk2 (Homo sapiens, UniProt P24941). Kind of assay: CyclinE/cdk2 protein kinase assay (histone H1 phosphorylation, immunopurified complex from HeLa). To be noted: read-out: IC50 CyclinE cdk2; Table 2; replicate experiments.

SMILES strings stand for the structures. Entries after “also recorded” stand apart in the source; their conditions may differ. Where two headings read alike, the source gives them in different places.

Experimental for CyclinB/cdk1: HeLa cells are blocked at the G1/S border by culturing in the presence of 2 mM thymidine for 20 h. The cells are then rinsed 3×in phosphate buffered saline and resuspended in regular medium. After 4 h of culture, the mitotic blocker, nocodazole is added to a final concentration of 75 ng/ml. […] The lysate is then clarified by centrifugation at 10,000×g for 10 min. The supernatant is collected and diluted 1:5 with Lysis Buffer. Monoclonal antibody against cyclinB (GNS1) is added to the supernatant to a final concentration of 5 μg/ml and shaken at 4° C. for 2 h. The immune complexes are then collected by the addition of 200 μl of protein agarose beads for 1 h. The beads are washed 4×in lysis buffer and 1×in kinase assay buffer.
Duplicate assays were performed at each concentration.

As for `CC[C@H](CO)Nc1nc(NCc2ccc(-c3ccccc3)cc2)c2ncn(C(C)C)c2n1` [Compound 73], the IC50 with HeLa S-3 cells came out at 500 nM.
For the compound `CC(=O)N[C@H]1CC[C@H](Nc2nc(NCc3ccc(-c4ccc(C)cc4)cc3)c3ncn(C(C)C)c3n2)CC1` [Compound 97], the IC50 against CyclinB/cdk1 is 10000 nM.
As for `CC(=O)N[C@H]1CC[C@H](Nc2nc(NCc3ccc(-c4cccc(Cl)c4)cc3)c3ncn(C(C)C)c3n2)CC1` [Compound 110], in the assay with HeLa S-3 cells, the IC50 was 20 nM.
Take `CC(C)n1cnc2c(NCc3ccc(-c4ccccc4)cn3)nc(N[C@H]3CC[C@H](N)CC3)nc21` [Compound 229]: in the assay with HeLa S-3 cells (Homo sapiens, HeLa S3, 48 h), the IC50 worked out at 400 nM.
Still for that read-out and setting: the figure for `CC(=O)N[C@H]1CC[C@H](Nc2nc(NCc3ccc(-c4cccc(C)c4)cc3)c3ncn(C(C)C)c3n2)CC1` [Compound 178] is 400 nM.
In the case of `CC[C@H](CO)Nc1nc(NCc2cccnc2)c2ncn(C(C)C)c2n1` [Compound 127, reference compound], the GI50 with HeLa S-3 cells (Homo sapiens, HeLa S3, Table 3, reference compounds in comparison) was in the range of 7000 to 15000 nM.
Turning to `CC(C)n1cnc2c(NCc3ccc(-c4ccsc4)cc3)nc(N[C@H]3CC[C@H](N)CC3)nc21` [Compound 12], the IC50 in the assay with HeLa S-3 cells is 0.1 nM. In addition, in assay [1], the “Cell Types Killed” value is reported as “H522, MDA-MB-435”. Moreover, the GI50 is 10 nM in the assay with MALME-3M; 14 nM in the assay with SK-MEL-5; 15 nM in the assay with NCI-H460; 18 nM with SK-OV-3; 38 nM in the assay on CAKI-1.
`CC(C)n1cnc2c(NCc3ccc(-c4ccccn4)cc3)nc(N[C@H]3CC[C@H](N)CC3)nc21` [Compound 78]: in assay [1], the “Cell Types Killed” value is reported as “H23, H522, OVCAR3, SF29”.
Turning to `CC(=O)N[C@H]1CC[C@H](Nc2nc(NCc3ccc(-c4ccccn4)cc3)c3ncn(C(C)C)c3n2)CC1` [Compound 79], on CyclinA/cdk2, the IC50 amounted to 10000 nM.
Consider `CC(C)n1cnc2c(NCc3ccc(-c4cccnc4)cc3)nc(N[C@H]3CC[C@H](N)CC3)nc21` [Compound 103], for which the “Cell Types Killed” value in assay [1] is on record as “OVCAR 3,OVCAR 5,; also recorded: H522, MDA-MB-435, SF295”.
With `CC(C)n1cnc2c(NCc3ccc(-c4ccccn4)nc3)nc(N[C@H]3CC[C@H](N)CC3)nc21` [Compound 93], the IC50 in the assay on HeLa S-3 cells was 300 nM.
As for `CC(=O)N[C@H]1CC[C@H](Nc2nc(NCc3ccc(-c4ccccn4)nc3)c3ncn(C(C)C)c3n2)CC1` [Compound 94], the “Cell Types Killed” value in [1] is “COLO 205, OVCAR-3, H522”.
Still for that read-out and setting: the entry for `CC(C)n1cnc2c(NCc3ccc(-c4ccccc4)nc3)nc(N[C@H]3CC[C@H](N)CC3)nc21` [Compound 86] is “OVCAR 3, OVCAR 5, H522”.
Regarding `CC(=O)N[C@H]1CC[C@H](Nc2nc(NCc3ccc(-c4ccsc4)cc3)c3ncn(C(C)C)c3n2)CC1` [Compound 113], the “Cell Types Killed” value in [1] is “H23, H522, OVCAR-3”.
Turning to `CC(=O)N[C@H]1CC[C@H](Nc2nc(NCc3ccc(-c4ccsc4)nc3)c3ncn(C(C)C)c3n2)CC1` [Compound 124], the “Cell Types Killed” value in [1] was “H23, H522, OVCAR-3,; also recorded: MDA-MB-435”.
Turning to `COc1cccc(-c2ccc(CNc3nc(N[C@H]4CC[C@H](NC(C)=O)CC4)nc4c3ncn4C(C)C)cc2)c1` [Compound 180], in the assay with HeLa S-3 cells (Homo sapiens, HeLa S3, 48 h), the IC50 came out at 400 nM.
In the case of `CC(=O)N[C@@H](C)CNc1nc(NCc2ccc(-c3ccccc3)cc2)c2ncn(C(C)C)c2n1` [Compound 108], at CyclinA/cdk2, the IC50 was 10000 nM.
For `CC(C)n1cnc2c(NCc3ccc(-c4cccs4)cc3)nc(N[C@H]3CC[C@H](N)CC3)nc21` [Compound 111], the IC50 worked out at 200 nM on CyclinA/cdk2 and 70 nM at CyclinE/cdk2.

Broadly, the GI50 is the concentration at which growth is held to half of that of the control. Read a high GI50 as lower sensitivity of the cells.

These data come from patent US6667311B2, “Nitrogen substituted biaryl purine derivatives as potent antiproliferative agents” (Albany Molecular Research, Inc., priority 2001, dated 2003).
